These results are taken from US20240316045A1, “CYCLOPROPYLAMIDE COMPOUNDS AGAINST PARASITES IN FISH” (Intervet Inc., priority 2021, published 2024).

Read-outs that look alike come from different tables or passages of the source.

Assay [1] relates to Copepodids (juvenile sea lice stage of Lepeophtheirus salmonis). Kind of assay: Juvenile sea lice contact assay. The note with it: read-out: Sea lice inhibition (% of dead+damaged copepodids). The procedure:
Copepodids (juvenile sea lice stage of Lepeophtheirus salmonis) were exposed to seawater spiked with declining concentrations of a test compound (dissolved in a DMSO sea-water mixture). Sea lice inhibition (% of dead+damaged copepodids) was assessed after approximately 24 hours of continuous exposure. The vitality of used parasites was confirmed in a negative (solvent) control group.

Assay [2] concerns Mobile stages of sea lice (pre-adults, adults of Lepeophtheirus salmonis). Nature of the assay: Adult sea lice contact assay. The note with it: read-out: EC50 (sea lice inhibition, dead+damaged). The procedure:
Mobile stages of sea lice (i.e., pre-adults, adults of Lepeophtheirus salmonis) were exposed to seawater spiked with declining concentrations of a test compound (dissolved in a PEG sea-water mixture). Sea lice inhibition (% of dead+damaged sea lice) was assessed after approximately 1 and 24 hours of continuous exposure in comparison to a negative (solvent) control group.

Another assay has as its system Lepeophtheirus salmonis. Nature of the assay: Salmon in vivo efficacy trial against sea lice, gavage administration. The note with it: in Salmo salar. The procedure: Salmon (Salmo salar) were treated once orally by gavage at a dose of 5 mg/kg bodyweight per fish (Day 0). As formulation DMSO 5%/fish oil 95% was used. Salmon of the negative control group received only the excipients of the formulation.
The fish were infested with Lepeophtheirus salmonis copepodids twice before treatment (i.e., around day −28 and day −3) and once after treatment (i.e., day 17). […]
Efficacy is expressed as a % reduction of sea lice in treated groups versus a control group, using the Abbott's formula.

Setting [3] is: test concentration 10 nM, approx. 24 hours continuous exposure.
The mark [4] stands for this setting: pre-adult/adult L. salmonis, assessed after approx. 1 and 24 hours, time of EC50 not stated.
Setting [5] is: 168 h, read-out: therapeutic efficacy against (pre-)adult sea lice (% reduction vs control, Abbott), single oral gavage 5 mg/kg, count at day 7, day -28 infestation.
Setting [6] is: 672 h, read-out: therapeutic efficacy against juvenile sea lice (% reduction vs control, Abbott), single oral gavage 5 mg/kg, count around day 28, day -3 infestation.

Turning to `Cc1ccccc1NC(=O)c1cc(NC(=O)[C@H]2[C@H](c3cc(Cl)cc(Cl)c3)C2(Cl)Cl)ccc1Cl` [Compound 1100], the inhibition (usually the drop in the measured response relative to a control, in per cent) at 0.01 µM in assay [1] (setting [3]) was determined as 100%. Further, in assay [2] (setting [4]), the concentration giving a half-maximal response (EC50) (as a rule, the concentration giving half of the maximal effect) lay in the range of 1 to 10 nM. Further, the inhibition in vivo at 5 mg/kg in the assay with Lepeophtheirus salmonis (setting [5]) and in the assay on Lepeophtheirus salmonis (setting [6]) was 100% throughout.

As for `Cc1c(F)cc(NC(=O)[C@H]2[C@H](c3cc(Cl)cc(Cl)c3)C2(Cl)Cl)cc1C(=O)Nc1ncc(F)cc1F` [Compound 1368], the inhibition at 0.01 µM in assay [1] (setting [3]) came to 100%. Further, the half-maximal effective concentration (EC50) in assay [2] (setting [4]) fell in the range of 1 to 10 nM. Moreover, the inhibition in vivo at 5 mg/kg in the assay with Lepeophtheirus salmonis (setting [5]) came out at 80%; with Lepeophtheirus salmonis (setting [6]) it was 100%.

In the case of `O=C(Nc1c(F)cccc1F)c1cc(NC(=O)[C@H]2[C@H](c3cc(Cl)cc(Cl)c3)C2(Cl)Cl)ccc1Cl` [Compound 1370], the inhibition at 0.01 µM in assay [1] (setting [3]) amounted to 100%. For the same compound, in assay [2] (setting [4]), the EC50 was in the range of 1 to 10 nM. Also, the inhibition in vivo at 5 mg/kg in the assay on Lepeophtheirus salmonis (setting [5]) and in the assay on Lepeophtheirus salmonis (setting [6]) was 100% each time.

On to `O=C(Nc1cncnc1)c1cc(NC(=O)[C@H]2[C@H](c3cc(Cl)cc(Cl)c3)C2(Cl)Cl)ccc1Cl` [Compound 1371], for which the inhibition at 0.01 µM in assay [1] (setting [3]) is 100%. The half-maximal effective concentration (EC50) in assay [2] (setting [4]) was in the range of 1 to 10 nM. Moreover, the inhibition in vivo at 5 mg/kg in the assay on Lepeophtheirus salmonis (setting [5]) and with Lepeophtheirus salmonis (setting [6]) was 100% in each case.

For the compound `O=C(Nc1ncc(F)cc1F)c1cc(NC(=O)[C@H]2[C@H](c3cc(Cl)cc(Cl)c3)C2(Cl)Cl)ccc1F` [Compound 1376], the inhibition at 10 pM in assay [1] (test concentration 0.01 nM, approx. 24 hours continuous exposure) worked out at 100%. For the same compound, the inhibition at 0.0001 µM in assay [1] (test concentration 0.1 nM, approx. 24 hours continuous exposure) was 100%. In addition, the half-maximal effective concentration (EC50) in assay [2] (setting [4]) was at most 1 nM. In addition, the inhibition in vivo at 5 mg/kg in the assay on Lepeophtheirus salmonis (setting [5]) and with Lepeophtheirus salmonis (setting [6]) was 100% in each case.

On to `O=C(Nc1ncc(F)cc1F)c1cc(NC(=O)[C@H]2[C@H](c3cc(Cl)cc(Cl)c3)C2(Cl)Cl)cc(F)c1Cl` [Compound 1378], for which, in assay [1] (setting [3]), the inhibition at 0.01 µM was determined as 100%. The EC50 in assay [2] (setting [4]) lay within 1 to 25 nM. Also, the inhibition in vivo at 5 mg/kg in the assay with Lepeophtheirus salmonis (setting [5]) and with Lepeophtheirus salmonis (setting [6]) was 100% each time.

In the case of `O=C(Nc1ncc(F)cc1F)c1cc(NC(=O)[C@H]2[C@H](c3cc(F)c(F)c(F)c3)C2(Cl)Cl)ccc1Cl` [Compound 1392], the inhibition at 0.01 µM in assay [1] (24 h) was 100%. Moreover, in assay [2], the EC50 is at most 1 nM. Moreover, the inhibition in vivo at 5 mg/kg was 100% in the assay on Lepeophtheirus salmonis (po, 168 h, read-out: therapeutic efficacy against (pre-)adult sea lice (% reduction vs control, Abbott)) and 80% with Lepeophtheirus salmonis (po, 672 h, read-out: therapeutic efficacy against juvenile sea lice (% reduction vs control, Abbott)).

On to `O=C(Nc1ncc(F)cc1F)c1cc(NC(=O)[C@H]2[C@H](c3cc(F)c(F)c(F)c3)C2(Cl)Cl)ccc1F` [Compound 1393], for which the inhibition at 0.01 µM in assay [1] (setting [3]) came to 100%. Besides, the EC50 in assay [2] (setting [4]) is at most 1 nM. The inhibition in vivo at 5 mg/kg in the assay on Lepeophtheirus salmonis (setting [5]) stood at 100%; with Lepeophtheirus salmonis (setting [6]), 80%.

On to `O=C(Nc1ncc(F)cc1F)c1c(F)ccc(NC(=O)[C@H]2[C@H](c3cc(Cl)cc(Cl)c3)C2(Cl)Cl)c1F` [Compound 1394], for which the inhibition at 0.1 µM in assay [1] (test concentration 100 nM, approx. 24 hours continuous exposure) came out at 100%. Also, the EC50 in assay [2] (setting [4]) fell in the range of 1 to 10 nM. Also, the inhibition in vivo at 5 mg/kg in the assay on Lepeophtheirus salmonis (setting [5]) and in the assay on Lepeophtheirus salmonis (setting [6]) was 100% throughout.
